Measurements taken from the NIST ThermoML archive (doi:10.1016/j.jct.2010.06.011).

Assay: xn = mol fraction of the nth substance listed
Conditions: Liquid, Vibrating tube method

COC(=O)OC [dimethyl carbonate] + CCCCCC
mass density [kg/m3]
Conditions	100 kPa	5000 kPa	10000 kPa	20000 kPa	30000 kPa	40000 kPa
308.15 K, x1 = 0.1	–	–	–	–	–	708.6
308.15 K, x1 = 0.2	–	–	–	–	–	736.4
308.15 K, x1 = 0.3	–	–	–	–	–	766.9
308.15 K, x1 = 0.4	–	–	–	–	–	800.4
308.15 K, x1 = 0.5	–	–	–	–	–	837.2
308.15 K, x1 = 0.6	–	–	–	–	869.4	877.7
308.15 K, x1 = 0.7	–	–	–	–	913.8	922.1
308.15 K, x1 = 0.8	–	–	–	–	963.2	971.5
308.15 K, x1 = 0.9	–	–	–	–	1018.1	1026.1
308.15 K, x1 = 0.95	–	–	–	–	1046.8	1054.7
308.15 K, x1 = 1	–	–	–	–	1077	1084.8
313.15 K, x1 = 0.1	664.8	671.1	677	687.5	696.7	705
313.15 K, x1 = 0.2	691.7	698	704.1	714.7	724.2	732.6
313.15 K, x1 = 0.3	721.5	727.8	733.9	744.7	754.3	762.9
313.15 K, x1 = 0.4	754.5	760.9	767	777.9	787.5	796.3
313.15 K, x1 = 0.5	791	797.4	803.4	814.3	824	832.8
313.15 K, x1 = 0.6	831.4	837.6	843.7	854.5	864.1	872.9
313.15 K, x1 = 0.7	876.3	882.4	888.3	898.9	908.5	917.2
313.15 K, x1 = 0.8	926.4	932.2	937.9	948.2	957.6	966.1
313.15 K, x1 = 0.9	982.5	988	993.4	1003.2	1012.2	1020.6
313.15 K, x1 = 0.95	1012.1	1017.4	1022.5	1032.1	1041	1049.1
313.15 K, x1 = 1	1043	1048.1	1053	1062.3	1071	1079
